Laboratory results taken from patent US20040254162A1, “Oxazolidinone derivatives as antimicrobials” (priority 2001, published 2004).
Several values for one entry are separate records, joined by “and”; a condition that tells them apart may be missing. Identical values can stand only once.

Assays:
[1] = test system: MRSE 879; experiment: Broth MIC, MRSE 879; format: cell-based; conditions: MRSE 879
[2] = test system: anaerobic bacteria; experiment: Agar dilution method for anaerobic bacteria, summary; format: cell-based; conditions: anaerobes
[3] = test system: MRSA 33; experiment: MIC, agar incorporation method; conditions: agar incorporation
[4] = Changes in MIC under different conditions: agar MIC; format: cell-based; conditions: strain not given
[5] = test system: Peptostreptococcus tetradius; experiment: Agar dilution MIC, anaerobes; format: cell-based; conditions: single isolates, anaerobic agar dilution
[6] = test system: VRE 6A (Ent. faecium 6A); experiment: MIC, agar incorporation method; conditions: agar incorporation
[7] = test system: P. acnes; experiment: Agar dilution MIC, anaerobes; format: cell-based; conditions: single isolates, anaerobic agar dilution
[8] = test system: Eubacterium leutum; experiment: Agar dilution MIC, anaerobes; format: cell-based; conditions: single isolates, anaerobic agar dilution
[9] = test system: Prevotella bivia; experiment: Agar dilution MIC, anaerobes; format: cell-based; conditions: single isolate, anaerobic agar dilution
[10] = test system: Clostridium camis; experiment: Agar dilution MIC, anaerobes; format: cell-based; conditions: single isolates, anaerobic agar dilution
[11] = test system: Fusobacterium necrogenes; experiment: Agar dilution MIC, anaerobes; format: cell-based; conditions: single isolate, anaerobic agar dilution
[12] = test system: MRSA 1029/99 and MRSE 879/247; experiment: Inhibition of biofilm (slime) production; format: cell-based; conditions: trypticase soy broth with 2% glucose, overnight 37° C., safranin OD 544 nm
Experimental: To study the effect of Compound No. 16 on the inhibition of biofilm production, the following study was carried out. […] Bacterial suspensions (in triplicate) were exposed to doubling dilution of antibiotics and incubated overnight at 37° C. with constant shaking (100 rpm). Next day, after aspirating the medium, biofilm was stained with safranin (0.1%) for 1 hour at room temperature, washed with distilled water, tapped dried and stain extracted into 200 μl of 0.2M NaoH and OD measured at 544 nm. Relative inhibition was determined by using the formula: […]

[13] = test system: Mycobacterium tuberculosis
[14] = test system: S. pneum AB 34; experiment: MIC, agar incorporation method; conditions: agar incorporation
[15] = test system: Peptostreptococcus asaccharolyticus; experiment: Agar dilution MIC, anaerobes; format: cell-based; conditions: single isolates, anaerobic agar dilution
[16] = test system: Strep. pyog. ATCC 19615; experiment: MIC, agar incorporation method; conditions: agar incorporation
[17] = test system: Clostridium perfringens; experiment: microbe, parasite or virus in culture; format: cell-based; conditions: single isolates, anaerobic agar dilution
[18] = test system: Fusobacterium montiferum; experiment: Agar dilution MIC, anaerobes; format: cell-based; conditions: single isolates, anaerobic agar dilution
[19] = Changes in MIC under different conditions: broth MIC; format: cell-based; conditions: strain not given
[20] = test system: Strep. pne. ATCC 6303; experiment: MIC, agar incorporation method; conditions: agar incorporation
[21] = test system: MRSE 879 adherent bacteria; experiment: Sintered glass adherent bacteria model; conditions: MRSE 879, sintered glass adherent bacteria model
[22] = test system: Porphyromonas asaccharolytica; experiment: Agar dilution MIC, anaerobes; format: cell-based; conditions: single isolate, anaerobic agar dilution
[23] = test system: MRSA 15187; experiment: MIC, agar incorporation method; conditions: agar incorporation
[24] = test system: Bacteroides fragilis; experiment: Agar dilution MIC, anaerobes; format: cell-based; conditions: single isolates, anaerobic agar dilution
[25] = test system: Prevotella intermedia; experiment: Agar dilution MIC, anaerobes; format: cell-based; conditions: single isolates, anaerobic agar dilution
[26] = test system: Clostridium difficile; experiment: Agar dilution MIC, anaerobes; format: cell-based; conditions: single isolates, anaerobic agar dilution
[27] = test system: S. aureus ATCC 25923; experiment: MIC, agar incorporation method; conditions: agar incorporation
[28] = test system: Ent. faecalis ATCC 29212; experiment: MIC, agar incorporation method; conditions: agar incorporation
[29] = test system: Mycobacterium avium intracellulare; experiment: Agar dilution method, mycobacteria; format: cell-based
[30] = test system: Porphyromonas gingivalis; experiment: Agar dilution MIC, anaerobes; format: cell-based; conditions: single isolate, anaerobic agar dilution

For `CC(=O)NC[C@H]1CN(c2ccc(N3CCN(Cc4ccc([N+](=O)[O-])o4)CC3)c(F)c2)C(=O)O1.Cl` [Compound No. 16], which “broth MIC” value [1] is on record?
Its value is 0.5 µg/mL.

And the “Geometric Mean” value [2]?
Its value is 0.037 µg/mL.

And the “MIC Range” value [2]?
Its value is 0.004 to 1 µg/mL.

And the MIC50 ([2]; Wilkins Chalgren agar, 48 hour)?
Its MIC50 is 0.032 µg/mL.

What about the MIC90 ([2]; Wilkins Chalgren agar, 48 hour) of the same compound?
Its MIC90 is 0.25 µg/mL.

What about the “MIC MRSA 33” value [3] of the same compound?
The value was 4 µg/mL.

And the “Agar MIC” value [4]?
Its value is 2 µg/mL.

And the “MIC Peptostreptococcus tetradius” value [5]?
Its value is “<=.008 μg/ml”.

What about the “MIC VRE 6A” value [6] of the same compound?
The value was 4 µg/mL.

What about the “MIC P. acnes” value [7] of the same compound?
The value was 1 µg/mL.

And the “MIC Eubacterium leutum” value [8]?
Its value is “<=.008 μg/ml”.

What about the “MIC Prevotella bivia” value [9] of the same compound?
Its value is 0.125 µg/mL.

And the “MIC Clostridium camis” value [10]?
Its value is 0.03 µg/mL and 0.016 µg/mL.

What about the “MIC Fusobacterium necrogenes” value [11] of the same compound?
Its value is “<=.008 μg/ml”.

And the “Formation of biofilm inhibition” value [12]?
The value was “occurs at lower a concentration”.

What about the MIC50 ([13]; Middlebrook 7H10 agar, 21 days) of the same compound?
Its MIC50 is 4 µg/mL.

And the MIC90 ([13]; Middlebrook 7H10 agar, 21 days)?
The MIC90 was 64 µg/mL.

What about the G.M. ([13]; geometric mean MIC) of the same compound?
The G.M. was 5.44 µg/mL.

What about the “MIC S. pneum AB 34” value [14] of the same compound?
The value was 1 µg/mL.

What about the “MIC Peptostreptococcus asaccharolyticus” value [15] of the same compound?
The value was “<=.008 μg/ml”.

And the “MIC S. pyogenes 19615” value [16]?
Its value is 0.5 µg/mL.

What about the “MIC Clostridium perfringens” value [17] of the same compound?
The value was 0.03 µg/mL.

What about the “MIC Fusobacterium montiferum” value [18] of the same compound?
The value was 0.03 µg/mL.

What about the “Broth MIC +50% Sheep serum” value ([19]; +50% sheep serum) of the same compound?
Its value is 2 µg/mL.

What about the “Broth MIC Normal MH broth” value ([19]; normal MH broth) of the same compound?
The value was 2 µg/mL.

What about the “MIC S. pneum 6303” value [20] of the same compound?
The value was 1 µg/mL.

What about the “concentration which would kill adherent bacteria” value [21] of the same compound?
Its value is 2 µg/mL.

What about the “MIC Porphyromonas asaccharolytica” value [22] of the same compound?
Its value is “<=.008 μg/ml”.

What about the “MIC MRSA 15187” value [23] of the same compound?
Its value is 4 µg/mL.

And the “MIC Bacteroides fragilis” value [24]?
Its value is 0.03 µg/mL and 0.06 µg/mL.

What about the “MIC Prevotella intermedia” value [25] of the same compound?
Its value is 0.016 µg/mL.

What about the “MIC Clostridium difficile” value [26] of the same compound?
The value was 0.03 µg/mL.

What about the “MIC S. aureus 25923” value [27] of the same compound?
The value was 2 µg/mL.

What about the “MIC E. faecalis 29212” value [28] of the same compound?
Its value is 2 µg/mL.

What about the MIC50 ([29]; Middlebrook 7H10 agar, 21 days) of the same compound?
The MIC50 was 8 µg/mL.

And the MIC90 ([29]; Middlebrook 7H10 agar, 21 days)?
Its MIC90 is 32 µg/mL.

And the G.M. ([29]; geometric mean MIC)?
Its G.M. is 8.52 µg/mL.

What about the “MIC Porphyromonas gingivalis” value [30] of the same compound?
The value was “<=.008 μg/ml”.
